Each structure is given as a SMILES string. “Also recorded” adds a separate entry of the source. Some results are limits rather than exact numbers.

The target in data set [1] is T1, Aβ (Homo sapiens, UniProt P05067).
T1 construct: purchased Sigma; Bachem (results also replicated with peptide from the Keck Laboratory, Yale); host or cells: chemical synthesis
The experiment in a line: G50 gel filtration chromatography of Aβ in presence of metal ions or EDTA. The conditions noted are these: 25 μM total metal ion. Here is the method:
Aβ was stored in aliquots of 0.52 mg/ml in water at −20° C., then kept at 4° C. when thawed. Reagents were mixed without vortex mixing. The incubated Aβ was directly applied to a G50 SF (Pharmacia, Uppsala, Sweden) column (Bio-Rad Econo-Column, 30×0.7 cm) pre-equilibrated with metal salt solution or EDTA (50 μM) in TBS at 20° C. and eluted at 8 ml/h (Wiz peristaltic pump, Isco, Lincoln, Nebr.). Absorbance was measured at 254 and 214 nm (Type 6 optical unit, Isco). The amount of Aβ eluting at various peaks was estimated from the area under the curve. […] Because the sample eluted in a volume of approximately 15 ml, the average concentration of the peptide on the column was 0.8 μM.
To study the effects of protein blocking upon adsorption of β to the chromatography column, a Sephadex G50 SF column which had been characterized previously for Aβ behavior was eluted with 3% bovine serum albumin (BSA) in TBS (50 ml) and equilibrated with non-BSA-containing buffer, subsequent to repeating the Aβ experiments.
The elution points of molecular mass standards and relative assignments of Aβ peak elutions are indicated. Mass standards were blue dextran (2×10^6 kDa, V0=void volume), BSA (66 kDa), carbonic anhydrase (29 kDa), cytochrome c (12.4 kDa), and aprotinin (6.5 kDa). The mass of Aβ is 4.3 kDa. […] Data for experiments performed in the presence of copper were taken from 214 nm readings and corrected for comparison.

Data set [2] in a line: Clinical study of oral zinc supplementation: cognition and plasma APP levels. The format is in vivo, human. Here is the method:
The cerebral cortex, and especially the hippocampus, contains the highest concentrations of zinc in the body (C. J. Frederickson, M. A. Klitenick, W. I. Manton, J. B. Kirkpatrick, Brain Res. 273:335 (1983)), and is exposed to extreme fluctuations of extracellular zinc levels (0.15 to 300 μM, C. J. Frederickson, Int. Rev. Neurobiol. 31:145 (1989)), e.g. during synaptic transmission (S. Y. Assaf and S.-H. Chung, Nature 308:734 (1984); G. A. Howell, M. G. Welch, C. J. Frederickson, Nature 308:736 (1984)). The cortical vasculature contains an intraluminal zinc concentration of 20 μM (I. J. T. Davies, M. Musa, T. L. Dormandy, J. Clin. Pathol. 21:359 (1968)), but the perivascular interstitial zinc concentration is 0.15/μM (C. J. Frederickson, Int. Rev. Neurobiol. 31:145 (1989)). Both sites of high zinc concentration gradients are severely and consistently affected by the pathological lesions of AD (B. T. Hyman, G. W. Van Hoesen, L. J. Kroner, A. R. Damasio, Ann. Neurol. 20:472 (1986); G. G. Glenner and C. W. Wong, Biochem. Biophys. Res. Commun. 120:885 (1984)). […] Additional evidence for altered cerebral zinc metabolism in AD include decreased temporal lobe zinc levels (D. Wenstrup, W. D. Ehmann, W. R. Markesbery, Brain Res. 533:125 (1990); J. Constantinidis, Encephale 16:231 (1990); F. M. Corrigan, G. P. Reynolds, N. I. Ward, Biometals 6:149 (1993)), elevated (80%) CSF levels (C. O. Hershey et al, Neurology 33:1350 (1983)), an increase in extracellular Zn^2+-metalloproteinase activities in AD hippocampus (J. R. Backstrom, C. A. Miller, Z. A. Tökés, J. Neurochem. 58:983 (1992)), and decreased levels of astrocytic growth-inhibitory factor, a metallothionein-like protein which chelates zinc (Y. Uchida, K. Takio, K. Titani, Y. Ihara, M. Tomonaga, Neuron 7:337 (1991)). Recently, a clinical study assayed the effects of oral zinc supplementation (6.7-fold the recommended daily allowance, a dose commonly found in nutritional supplements) upon cognition and plasma APP levels in AD subjects and age-matched controls. […]

Data set [3] deals with T1, Aβ. The experiment in a line: SDS Tris/Tricine gel electrophoresis of Aβ incubated with Zn2+. The settings on record: Zn^2+ 200 μM, 1-24 h, 20° C. Here is the method:
To further test whether zinc induces irreversible precipitation of Aβ in the absence of kaolin, Aβ incubated with Zn^2+ (200 μM, 1-24 h, 20° C.) was subjected to SDS Tris/Tricine gel electrophoresis.

The subject of data set [4] is trypsin. Kind of data set: Trypsin activity, Z-Arg-amido-4-methylcoumarin fluorescent cleavage product. The format is biochemical. The conditions noted are these: Zn^2+ up to 100 μM in TBS. Here is the method:
(§1) Tryptic Digestion of Aβ-Aβ1-40 (13.9 μg) was incubated with Zn^2+ ([…] in blocking buffer, 1 h, 37° C.) and then digested with trypsin (12 ng, 3 h, 37° C.). The reaction was stopped by adding SDS sample buffer containing phenylmethylsulfonyl fluoride (1 mM), boiling the samples (5 min), and applying the samples to Tris/Tricine gel electrophoresis and transfer. The blot was washed with EDTA, Coomassie-stained, incubated with ^65Zn^2+, individual bands were excised, assayed for ^65Zn^2+ binding, and N-terminal sequenced to confirm the identity of the digestion products. The effects of Zn^2+ (up to 100 μM in TBS) on the activity of trypsin, itself, were assayed by assay of Z-Arg-amido-4-methylcoumarin (Sigma) fluorescent cleavage product and determined to be negligible.

Data set [5] concerns trypsin. Kind of data set: Tryptic digestion of Aβ after incubation with Zn2+. The format is biochemical. The conditions noted are these: Zn^2+ 200 μM. How it is done: as §1
(FIG. 4a) depicts a blot of tryptic digests of Aβ (13.9 μg) after incubation with increasing concentrations of zinc (lane labels, in micromolar), stained by Coomassie Blue. […] The migration of the low molecular size markers (STD) are indicated (in kilodaltons) on the right. (FIG. 4b) depicts ^65Zn^2+ binding to Aβ tryptic digestion products. The blot in 4a was incubated with ^65Zn^2+, the visible bands excised, and the bound counts for each band determined.

T1 sequence (P05067 672-711): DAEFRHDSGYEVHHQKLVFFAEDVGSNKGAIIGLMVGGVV

For `[Zn+2]` [Zn^2+, zinc], the “Aβ applied to the column that is eluted” value in data set [1] was less than 20%. Moreover, the “drop in Mini-Mental State Examination scores” value in data set [2] (AD group, after four days of oral zinc supplementation) is 31%. Further, the “effect on cognition in AD subjects” value in data set [2] (oral, 6.7-fold the recommended daily allowance) was “acute decline in cognition; also recorded: acutely adverse effect on cognition”. In addition, in data set [2] (same conditions), the “effect on age-matched control subjects” value is reported as “remained unaffected”. Besides, the “covalent or SDS-resistant polymerization of Aβ” value in data set [3] is “does not induce covalent or SDS-resistant polymerization”. Further, the “effects on the activity of trypsin itself” value in data set [4] is listed as “negligible”. The “inhibition of Aβ hydrolysis by trypsin” value in data set [5] was “complete inhibition”.

Source of the values: patent US6890727B2, “Diagnostic assay for Alzheimer's disease: assessment of Aβ abnormalities” (The General Hospital Corporation, priority 1994, dated 2005).
